# Measured values published in patent publication US10583124B2, “Wild bird treatment composition and methods” (priority 2016, dated 2020).
# Read-outs that look alike come from different tables or passages of the source.
# Key:
# [1] = assay type: physicochemical; settings: in acetonitrile, positive control, 1 hour
# Procedure: Composition 10 was exposed to elevated temperature (75° C.) for 1 hour to determine if fenbendazole inside composition 10 was being protected from the effects of high temperature. Control composition 10 was left at room temperature for the same time period. Additionally, 100 ppm fenbendazole in acetonitrile was used as a positive control and exposed to the same conditions (room and elevated temperature for 1 hour).
# [2] = as long as protected from photo oxidation; cited from earlier work
smiles,measurement,setting,value
COC(=O)Nc1nc2ccc(Sc3ccccc3)cc2[nH]1 [fenbendazole],Fenbendazole extracted from 100 ppm fenbendazole solution,[1]; 21 °C (room temperature),115.18 ppm
same,Fenbendazole extracted from 100 ppm fenbendazole solution,[1]; 75 °C,93.36 ppm
same,humidity range in which stable,[2],10-100%
same,temperature range in which stable,[2],4.4-37.7 °C
